Experimental data published in US20220204539A1, “CD73 INHIBITORS” (BioArdis LLC, priority 2019, published 2022).

Target: T1, Recombinant Human 5′-Nucleotidase (CD73) (Homo sapiens, UniProt P21589)
T1 construct: CHO derived CD73 (Trp27-Lys547), with a C-terminal 6-His tag; 6-His (C); purchased R&D 5795-EN; host or cells: CHO
T1 sequence (P21589 27-547): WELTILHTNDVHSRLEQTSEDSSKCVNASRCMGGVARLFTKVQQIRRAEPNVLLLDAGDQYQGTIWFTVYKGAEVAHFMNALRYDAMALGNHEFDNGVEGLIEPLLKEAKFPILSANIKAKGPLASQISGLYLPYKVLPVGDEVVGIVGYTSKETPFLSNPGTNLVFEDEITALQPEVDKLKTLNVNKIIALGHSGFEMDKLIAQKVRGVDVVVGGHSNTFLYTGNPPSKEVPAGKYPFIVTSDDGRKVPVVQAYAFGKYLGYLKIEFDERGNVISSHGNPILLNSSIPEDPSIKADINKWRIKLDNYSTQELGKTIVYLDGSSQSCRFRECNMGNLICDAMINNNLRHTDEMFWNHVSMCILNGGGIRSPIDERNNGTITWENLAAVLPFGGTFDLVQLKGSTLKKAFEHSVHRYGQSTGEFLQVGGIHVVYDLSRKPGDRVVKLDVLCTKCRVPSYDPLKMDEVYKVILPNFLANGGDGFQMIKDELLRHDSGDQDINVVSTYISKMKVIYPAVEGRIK
Assay: CD73 Enzyme Assay
Type: biochemical
Settings: human CD73 0.5 nM, AMP 30 μM, PiColorLock phosphate detection; read-out: Potency (IC50, CD73 enzyme assay)
Excerpt: Soluble recombinant CD73 catalyzes the conversion of adenosine monophosphate (AMP) to adenosine and inorganic phosphate. The phosphate detection reagent, PiColorLock™ (Innova Bioscience, Cat #303-0125) is based on the change in absorbance of the dye malachite green in the presence of inorganic phosphate (Pi) and this property can be exploited to measure any enzyme that generates Pi. Recombinant Human 5′-Nucleotidase (CD73) (R&D #5795-EN, CHO derived CD73 (Trp27-Lys547), with a C-terminal 6-His tag) was used in the enzymatic assay. This assay was run in a 384-well plate format (Corning® NBS™ 384 well plates, Cat #3640). The basic assay procedure involves two steps: 1) Enzyme reaction: The CD73 enzyme (R&D #5795-EN) is incubated in the presence or absence of compounds. AMP (sigma, cat #01930) is added to start the […] reaction. 2) Detection step: Gold mix is added to the assay system, then stabilizers are added. After incubation the absorbance of the solution is read at OD 635 nm. The recorded OD signal is proportional to the enzyme activity.
Briefly, 25 μl human CD73 (0.5 nM final concentration) in the enzymatic buffer solutions (20 mM Tris, 25 mM NaCl, 1 mM MgCl2, pH 7.5, 0.005% Tween-20) were mixed with various concentrations of the test compound (dissolved in 100% DMSO). These solutions were incubated for 15 min at 25° C., and subsequently 25 μl AMP (30 μM final concentration) was added to start the reaction. The final reaction mixture of enzyme-substrate-compound was incubated for 20 min at 37° C. Meanwhile ‘Gold mix’ was prepared shortly before use by adding 1/100 vol. of accelerator to the PiColorLock™ Gold reagent. 12 μL/well of the ‘Gold mix’ was added to assay plate containing 50 μL enzyme reaction buffer and incubated at 25° C. for 5 min. 5 μL/well stabilizer was added to the assay plate and incubated at 25° C. for 30 min. The absorbance of the well solutions was measured at 635 nm on a Spark 10M instrument (TECAN).
The percent (%) inhibition at each concentration of a compound was calculated relative to the OD value in the Max and Min control wells contained within each assay plate. The Max control wells contained enzyme and substrate as 0% inhibition, and the M control wells only contained substrate without enzyme as 100% inhibition. The concentrations and percent inhibition values for a test compound are plotted and the concentration of the compound required to achieve 50% inhibition (IC50) was determined with a four-parameter logistic dose response equation.

| Structure (SMILES) | IC50 [nM] |
| --- | --- |
| O=P(O)(O)CP(=O)(O)OC[C@H]1OC(c2cnc3c(NCc4ccccc4)ncnn23)[C@@H](F)[C@@H]1O (stereo in doubt) [Compound 3, [({[(2R,3R,4S,5S)-5-[4-(benzylamino)imidazo[2,1-f][1,2,4]triazin-7-yl]-4-fluoro-3-hydroxyoxolan-2-yl]methoxy}(hydroxy)phosphoryl)methyl]phosphonic Acid] | > 1000 |
| O=P(O)(O)CP(=O)(O)OC[C@H]1O[C@H](c2cnc3c(NCc4ccccc4)ncnn23)[C@@H](F)[C@@H]1O [Compound 4, [({[(2R,3R,4S,5R)-5-[4-(benzylamino)imidazo[2,1-f][1,2,4]triazin-7-yl]-4-fluoro-3-hydroxyoxolan-2-yl]methoxy}(hydroxy)phosphoryl)methyl]phosphonic Acid] | > 1000 |
| O=P(O)(O)CP(=O)(O)OC[C@H]1O[C@@H](c2cnc3c(NC4CCCC4)nc(Cl)nn23)[C@@H](F)[C@@H]1O [Compound 7, (((((2R,3R,4S,5S)-5-(2-chloro-4-(cyclopentylamino)imidazo[2,1-f][1,2,4]triazin-7-yl)-4-fluoro-3-hydroxytetrahydrofuran-2-yl)methoxy)(hydroxy)phosphoryl)methyl)phosphonic acid] | 10 to 99 |
| O=P(O)(O)CP(=O)(O)OC[C@H]1O[C@@H](c2cnc3c(NCC4CCCO4)nc(Cl)nn23)[C@H](O)[C@@H]1O (stereo partly drawn) [Compound 13, (((((2R,3S,4R,1S)-5-(2-chloro-4-(((tetrahydrofuran-2-yl)methyl)amino)imidazo[2,1-f][1,2,4]triazin-7-yl)-3,4-dihydroxytetrahydrofuran-2-yl)methoxy)(hydroxy)phosphoryl)methyl) phosphonic Acid] | 10 to 99 |
| CN(C)[C@H]1CC[C@H](Nc2nc(Cl)nn3c([C@@H]4O[C@H](COP(=O)(O)CP(=O)(O)O)[C@@H](O)[C@H]4O)cnc23)C1 [Compound 25, (((((2R,3S,4R,5S)-5-(2-chloro-4-(((1S,3S)-3-(dimethylamino)cyclopentyl)amino)imidazo[2,1-f][1,2,4]triazin-7-yl)-3,4-dihydroxytetrahydrofuran-2-yl)methoxy)(hydroxy)phosphoryl)methyl)phosphonic acid] | 10 to 99 |
| O=C1C[C@H](Nc2nc(Cl)nn3c([C@@H]4O[C@H](COP(=O)(O)CP(=O)(O)O)[C@@H](O)[C@H]4O)cnc23)CN1 [Compound 26, [({[(2R,3S,4R,5S)-5-{2-chloro-4-[(5-oxopyrrolidin-3-yl)amino]imidazo[2,1-f][1,2,4]triazin-7-yl}-3,4-dihydroxyoxolan-2-yl]methoxy}(hydroxy)phosphoryl)methyl]phosphonic acid] | 10 to 99 |
| O=P(O)(O)CP(=O)(O)OC[C@H]1O[C@@H](c2cnc3c(N4CCC[C@@H]4c4ccccc4)nc(Cl)nn23)[C@H](O)[C@@H]1O [Compound 31, [({[(2R,3S,4R,5S)-5-{2-chloro-4-[(2R)-2-phenylpyrrolidin-1-yl]imidazo[2,1-f][1,2,4]triazin-7-yl}-3,4-dihydroxyoxolan-2-yl]methoxy}(hydroxy)phosphoryl)methyl]phosphonic Acid] | 10 to 99 |
| CC(C)(C)[C@@H]1CCCN1c1nc(Cl)nn2c([C@@H]3O[C@H](COP(=O)(O)CP(=O)(O)O)[C@@H](O)[C@H]3O)cnc12 [Compound 38, (((((2R,3S,4R,1S)-5-(4-((S)-2-(tert-butyl)pyrrolidin-1-yl)-2-chloroimidazo[2,1-f][1,2,4]triazin-7-yl)-3,4-dihydroxytetrahydrofuran-2-yl)methoxy)(hydroxy)phosphoryl)methyl)phosphonic Acid] | 10 to 99 |
| CC(C)(C)[C@H]1CCCN1c1nc(Cl)nn2c([C@@H]3O[C@H](COP(=O)(O)CP(=O)(O)O)[C@@H](O)[C@H]3O)cnc12 [Compound 51, (((((2R,3S,4R,1S)-5-(4-((R)-2-(tert-butyl)pyrrolidin-1-yl)-2-chloroimidazo[2,1-f][1,2,4]triazin-7-yl)-3,4-dihydroxytetrahydrofuran-2-yl)methoxy)(hydroxy)phosphoryl)methyl)phosphonic Acid] | 10 to 99 |
| COP(=O)(CP(=O)(OC)OC[C@H]1O[C@@H](c2cnc3c(NC4CCCC4)nc(Cl)nn23)[C@H](O)[C@@H]1O)OC (stereo partly drawn) [Compound 57, ((2R,3S,4R,5S)-5-(2-chloro-4-(cyclopentylamino)imidazo[2,1-f][1,2,4]triazin-7-yl)-3,4-dihydroxytetrahydrofuran-2-yl)methyl methyl ((dimethoxyphosphoryl)methyl)phosphonate] | > 1000 |
| O=P(O)(CP1(=O)OCC[C@@H](c2cccc(Cl)c2)O1)OC[C@H]1O[C@@H](c2cnc3c(NC4CCCC4)nc(Cl)nn23)[C@H](O)[C@@H]1O (stereo partly drawn) [Compound 58, ((2R,3S,4R,5S)-5-(2-chloro-4-(cyclopentylamino)imidazo[2,1-f][1,2,4]triazin-7-yl)-3,4-dihydroxytetrahydrofuran-2-yl)methyl hydrogen (((4S)-4-(3-chlorophenyl)-2-oxido-1,3,2-dioxaphosphinan-2-yl)methyl)phosphonate] | 100 to 999 |
| COP(=O)(CP1(=O)OCC[C@@H](c2cccc(Cl)c2)O1)OC[C@H]1O[C@@H](c2cnc3c(NC4CCCC4)nc(Cl)nn23)[C@H](O)[C@@H]1O (stereo partly drawn) [Compound 59, ((2R,3S,4R,5S)-5-(2-chloro-4-(cyclopentylamino)imidazo[2,1-f][1,2,4]triazin-7-yl)-3,4-dihydroxytetrahydrofuran-2-yl)methyl methyl (((4S)-4-(3-chlorophenyl)-2-oxido-1,3,2-dioxaphosphinan-2-yl)methyl)phosphonate] | > 1000 |
| O=P(O)(O)CP(=O)(O)OC[C@H]1O[C@@H](c2cnc3c(NC4CCCC4)nc(C4CC4)nn23)[C@H](O)[C@@H]1O [Compound 60, (((((2R,3S,4R,1S)-5-(4-(cyclopentylamino)-2-cyclopropylimidazo[2,1-f][1,2,4]triazin-7-yl)-3,4-dihydroxytetrahydrofuran-2-yl)methoxy)(hydroxy)phosphoryl)methyl)phosphonic Acid] | 100 to 999 |
| O=P(O)(O)CP(=O)(O)OC[C@H]1O[C@@H](c2cnc3c(OC4CCCC4)ncnn23)[C@H](O)[C@@H]1O [Compound 61, (((((2R,3S,4R,1S)-5-(4-(cyclopentyloxy)imidazo[2,1-f][1,2,4]triazin-7-yl)-3,4-dihydroxytetrahydrofuran-2-yl)methoxy)(hydroxy)phosphoryl)methyl)phosphonic Acid] | 100 to 999 |
| COCCOCCOP(=O)(CP(=O)(O)O)OC[C@H]1O[C@@H](c2cnc3c(NC4CCCC4)nc(Cl)nn23)[C@H](O)[C@@H]1O (stereo partly drawn) [Compound 67, (((((2R,3S,4R,5S)-5-(2-chloro-4-(cyclopentylamino)imidazo[2,1-f][1,2,4]triazin-7-yl)-3,4-dihydroxytetrahydrofuran-2-yl)methoxy)(2-(2-methoxyethoxy)ethoxy)phosphoryl)methyl)phosphonic acid] | 10 to 99 |
| N#CCCOP(=O)(CP(=O)(O)O)OC[C@H]1O[C@@H](c2cnc3c(NC4CCCC4)nc(Cl)nn23)[C@H](O)[C@@H]1O (stereo partly drawn) [Compound 69, (((((2R,3S,4R,5S)-5-(2-chloro-4-(cyclopentylamino)imidazo[2,1-f][1,2,4]triazin-7-yl)-3,4-dihydroxytetrahydrofuran-2-yl)methoxy)(2-cyanoethoxy)phosphoryl)methyl) phosphonic acid] | 10 to 99 |
